Assay results taken from ChEMBL document CHEMBL5303573, “Mapping human microbiome drug metabolism by gut bacteria and their genes” (Nature, 2019).

Tests used:
[1] = The drug is tested on Anaerotruncus colihominis strain: DSM17241 for biotransformation. The drug concentrations were measured before and after a 12-h incubation by liquid-chromatography-coupled mass spectrometry (LC–MS); conditions: 2 µM
[2] = The drug is tested on Subdoligranulum variabile strain: DSM15176 for biotransformation. The drug concentrations were measured before and after a 12-h incubation by liquid-chromatography-coupled mass spectrometry (LC–MS); conditions: 2 µM
[3] = The drug is tested on Enterococcus faecalis strain: V583 for biotransformation. The drug concentrations were measured before and after a 12-h incubation by liquid-chromatography-coupled mass spectrometry (LC–MS); conditions: 2 µM
[4] = The drug is tested on Eggerthella lenta strain: ATCC25559 for biotransformation. The drug concentrations were measured before and after a 12-h incubation by liquid-chromatography-coupled mass spectrometry (LC–MS); conditions: 2 µM
[5] = The drug is tested on Bacteroides coprophilus strain: DSM18228 for biotransformation. The drug concentrations were measured before and after a 12-h incubation by liquid-chromatography-coupled mass spectrometry (LC–MS); conditions: 2 µM
[6] = The drug is tested on Bifidobacterium ruminantium strain: fecal isolate for biotransformation. The drug concentrations were measured before and after a 12-h incubation by liquid-chromatography-coupled mass spectrometry (LC–MS); conditions: 2 µM
[7] = parabacteroides distasonis, 12 h, 2 µM
Description: The drug is tested on Parabacteroides distasonis strain: ATCC8503 for biotransformation. The drug concentrations were measured before and after a 12-h incubation by liquid-chromatography-coupled mass spectrometry (LC–MS)

[8] = The drug is tested on Clostridium sp. strain: fecal isolate for biotransformation. The drug concentrations were measured before and after a 12-h incubation by liquid-chromatography-coupled mass spectrometry (LC–MS); conditions: 2 µM
[9] = anaerostipes sp., 12 h, 2 µM
Description: The drug is tested on Anaerostipes sp. strain: fecal isolate for biotransformation. The drug concentrations were measured before and after a 12-h incubation by liquid-chromatography-coupled mass spectrometry (LC–MS)

[10] = bifidobacterium adolescentis, 12 h, 2 µM
Description: The drug is tested on Bifidobacterium adolescentis strain: ATCC 15703 for biotransformation. The drug concentrations were measured before and after a 12-h incubation by liquid-chromatography-coupled mass spectrometry (LC–MS)

[11] = The drug is tested on Bacteroides dorei strain: DSM17855 for biotransformation. The drug concentrations were measured before and after a 12-h incubation by liquid-chromatography-coupled mass spectrometry (LC–MS); conditions: phocaeicola dorei, 2 µM
[12] = The drug is tested on Bacteroides finegoldii strain: DSM17565 for biotransformation. The drug concentrations were measured before and after a 12-h incubation by liquid-chromatography-coupled mass spectrometry (LC–MS); conditions: 2 µM
[13] = bacteroides intestinalis, 12 h, 2 µM
Description: The drug is tested on Bacteroides intestinalis strain: DSM17393 for biotransformation. The drug concentrations were measured before and after a 12-h incubation by liquid-chromatography-coupled mass spectrometry (LC–MS)

[14] = The drug is tested on Bacteroides uniformis strain: ATCC8492 for biotransformation. The drug concentrations were measured before and after a 12-h incubation by liquid-chromatography-coupled mass spectrometry (LC–MS); conditions: 2 µM
[15] = bacteroides thetaiotaomicron, 12 h, 2 µM
Description: The drug is tested on Bacteroides thetaiotaomicron strain: 7330 for biotransformation. The drug concentrations were measured before and after a 12-h incubation by liquid-chromatography-coupled mass spectrometry (LC–MS)

[16] = The drug is tested on Bacteroides caccae strain: ATCC43185 for biotransformation. The drug concentrations were measured before and after a 12-h incubation by liquid-chromatography-coupled mass spectrometry (LC–MS); conditions: 2 µM
[17] = parabacteroides johnsonii, 12 h, 2 µM
Description: The drug is tested on Parabacteroides johnsonii strain: DSM18315 for biotransformation. The drug concentrations were measured before and after a 12-h incubation by liquid-chromatography-coupled mass spectrometry (LC–MS)

[18] = The drug is tested on Eubacterium rectale strain: ATCC33656 for biotransformation. The drug concentrations were measured before and after a 12-h incubation by liquid-chromatography-coupled mass spectrometry (LC–MS); conditions: agathobacter rectalis, 2 µM
[19] = The drug is tested on Alistipes indistinctus strain: DSM22520 for biotransformation. The drug concentrations were measured before and after a 12-h incubation by liquid-chromatography-coupled mass spectrometry (LC–MS); conditions: 2 µM
[20] = roseburia intestinalis, 12 h, 2 µM
Description: The drug is tested on Roseburia intestinalis strain: L1-82 for biotransformation. The drug concentrations were measured before and after a 12-h incubation by liquid-chromatography-coupled mass spectrometry (LC–MS)

Structure (SMILES) | Bacterial Biotransformation [1] | Bacterial Biotransformation [2] | Bacterial Biotransformation [3] | Bacterial Biotransformation [4] | Bacterial Biotransformation [5] | Bacterial Biotransformation [6] | Bacterial Biotransformation [7] | Bacterial Biotransformation [8] | Bacterial Biotransformation [9] | Bacterial Biotransformation [10] | Bacterial Biotransformation [11] | Bacterial Biotransformation [12] | Bacterial Biotransformation [13] | Bacterial Biotransformation [14] | Bacterial Biotransformation [15] | Bacterial Biotransformation [16] | Bacterial Biotransformation [17] | Bacterial Biotransformation [18] | Bacterial Biotransformation [19] | Bacterial Biotransformation [20]
CC12CC3CC(C)(C1)CC(N)(C3)C2 [MEMANTINE] | Compound NOT metabolized | Compound NOT metabolized | Compound NOT metabolized | Compound NOT metabolized | Compound NOT metabolized | Compound metabolized | Compound NOT metabolized | Compound NOT metabolized | Compound NOT metabolized | Compound NOT metabolized | Compound NOT metabolized | Compound NOT metabolized | Compound NOT metabolized | Compound NOT metabolized | Compound NOT metabolized | Compound NOT metabolized | Compound NOT metabolized | – | – | –
CC(=O)O[C@H]1C(=O)[C@@]2(C)[C@H]([C@H](OC(=O)c3ccccc3)[C@]3(O)C[C@H](OC(=O)[C@H](O)[C@@H](NC(=O)c4ccccc4)c4ccccc4)C(C)=C1C3(C)C)[C@]1(OC(C)=O)CO[C@@H]1C[C@@H]2O [PACLITAXEL] | Compound NOT metabolized | Compound NOT metabolized | Compound NOT metabolized | Compound NOT metabolized | Compound NOT metabolized | Compound NOT metabolized | Compound NOT metabolized | – | Compound NOT metabolized | Compound NOT metabolized | – | Compound NOT metabolized | Compound NOT metabolized | Compound metabolized | Compound NOT metabolized | Compound NOT metabolized | Compound NOT metabolized | Compound NOT metabolized | Compound NOT metabolized | Compound NOT metabolized
OC(c1cc(C(F)(F)F)nc2c(C(F)(F)F)cccc12)C1CCCCN1 (stereo unspecified) [MEFLOQUINE] | – | Compound NOT metabolized | Compound NOT metabolized | Compound metabolized | Compound NOT metabolized | – | Compound NOT metabolized | – | Compound NOT metabolized | Compound NOT metabolized | Compound NOT metabolized | Compound NOT metabolized | Compound NOT metabolized | Compound NOT metabolized | Compound NOT metabolized | Compound NOT metabolized | Compound NOT metabolized | Compound NOT metabolized | Compound NOT metabolized | Compound metabolized
COC(=O)[C@H]1[C@H]2C[C@@H]3c4[nH]c5cc(OC)ccc5c4CCN3C[C@H]2C[C@@H](OC(=O)c2cc(OC)c(OC)c(OC)c2)[C@@H]1OC [RESERPINE] | Compound NOT metabolized | – | Compound NOT metabolized | Compound NOT metabolized | Compound NOT metabolized | Compound NOT metabolized | Compound NOT metabolized | Compound NOT metabolized | Compound NOT metabolized | Compound NOT metabolized | Compound NOT metabolized | – | Compound NOT metabolized | Compound NOT metabolized | Compound NOT metabolized | Compound NOT metabolized | Compound NOT metabolized | Compound NOT metabolized | Compound NOT metabolized | Compound NOT metabolized
CCCCC(=O)O[C@]1(C(=O)CO)[C@@H](C)C[C@H]2[C@@H]3CCC4=CC(=O)C=C[C@]4(C)[C@@]3(F)[C@@H](O)C[C@@]21C [BETAMETHASONE VALERATE] | Compound NOT metabolized | Compound metabolized | Compound NOT metabolized | Compound metabolized | – | Compound NOT metabolized | Compound metabolized | Compound metabolized | Compound NOT metabolized | – | Compound metabolized | Compound metabolized | – | Compound metabolized | Compound metabolized | – | Compound metabolized | Compound NOT metabolized | – | Compound NOT metabolized
Cc1ccc(/C(=C\CN2CCCC2)c2ccccn2)cc1 [TRIPROLIDINE] | Compound NOT metabolized | Compound NOT metabolized | Compound NOT metabolized | Compound NOT metabolized | Compound NOT metabolized | – | Compound NOT metabolized | Compound NOT metabolized | Compound NOT metabolized | Compound NOT metabolized | Compound NOT metabolized | Compound NOT metabolized | Compound NOT metabolized | Compound NOT metabolized | Compound NOT metabolized | Compound NOT metabolized | Compound NOT metabolized | – | Compound NOT metabolized | Compound NOT metabolized
CCCCC(=O)N(Cc1ccc(-c2ccccc2-c2nnn[nH]2)cc1)[C@H](C(=O)O)C(C)C | Compound NOT metabolized | – | Compound NOT metabolized | Compound NOT metabolized | Compound NOT metabolized | Compound NOT metabolized | Compound metabolized | Compound NOT metabolized | Compound NOT metabolized | Compound NOT metabolized | Compound NOT metabolized | Compound metabolized | Compound metabolized | Compound metabolized | Compound metabolized | Compound NOT metabolized | Compound NOT metabolized | Compound NOT metabolized | Compound NOT metabolized | –
CCc1nc(N)nc(N)c1-c1ccc(Cl)cc1 [PYRIMETHAMINE] | Compound NOT metabolized | – | Compound NOT metabolized | Compound NOT metabolized | Compound NOT metabolized | Compound NOT metabolized | Compound NOT metabolized | Compound NOT metabolized | Compound NOT metabolized | Compound NOT metabolized | Compound NOT metabolized | Compound NOT metabolized | Compound NOT metabolized | Compound NOT metabolized | Compound NOT metabolized | Compound NOT metabolized | Compound NOT metabolized | – | Compound NOT metabolized | Compound NOT metabolized
O=C(O[C@H]1C[C@H]2CC[C@@H](C1)[N+]21CCCC1)C(O)(c1ccccc1)c1ccccc1.[Cl-] [TROSPIUM CHLORIDE] | Compound NOT metabolized | Compound NOT metabolized | Compound NOT metabolized | Compound NOT metabolized | – | Compound NOT metabolized | Compound NOT metabolized | – | Compound NOT metabolized | Compound NOT metabolized | Compound NOT metabolized | Compound NOT metabolized | Compound NOT metabolized | Compound NOT metabolized | Compound NOT metabolized | Compound NOT metabolized | Compound NOT metabolized | Compound NOT metabolized | – | Compound NOT metabolized
